The values below come from PMC12828229, “Aspergillus fumigatus PolX1 is an early ancestor of vertebrate terminal deoxynucleotidyl transferases” (Nucleic Acids Research, 2026).

This assay addresses T1, AfPolX1 (Aspergillus fumigatus, UniProt Q4X1T5).
T1 construct: gene AFUA_2G08840; catalytic core (8 kDa, fingers, palm, thumb), residues 297-704 in methods, 298-704 in results; codon-optimised in pET28a(+), E. coli Rosetta 2 (DE3); N-terminal His6 tag cut off with TEV protease
T1 sequence (Q4X1T5 297-704): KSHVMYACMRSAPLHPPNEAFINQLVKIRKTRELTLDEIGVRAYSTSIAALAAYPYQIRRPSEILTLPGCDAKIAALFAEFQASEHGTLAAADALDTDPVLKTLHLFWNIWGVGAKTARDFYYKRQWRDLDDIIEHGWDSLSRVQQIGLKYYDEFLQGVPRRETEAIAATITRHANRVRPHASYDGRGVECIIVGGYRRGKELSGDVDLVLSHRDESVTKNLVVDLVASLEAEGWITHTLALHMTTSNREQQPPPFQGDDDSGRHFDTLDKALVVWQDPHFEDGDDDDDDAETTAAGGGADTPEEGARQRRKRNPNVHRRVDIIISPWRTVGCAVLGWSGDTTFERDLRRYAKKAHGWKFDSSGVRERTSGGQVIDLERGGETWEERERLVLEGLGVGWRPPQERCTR
Kind of assay: single-turnover gap-filling primer extension, denaturing gel. It is filed as biochemical. Conditions: 1-nt gapped 5'-phosphate DNA (D1) templating dT, 150 nM; 4 uM enzyme; 1 mM dATP; 10 mM Mg acetate; pH 7.5; 37 °C.

SMILES strings stand for the structures.

In the case of `Nc1ncnc2c1ncn2[C@H]1C[C@H](O)[C@@H](COP(=O)(O)OP(=O)(O)OP(=O)(O)O)O1` [dATP], the kobs entry is on record as “Correct nucleotide incorporation proceeded at comparable rates for all the substrates”.
